How the values were obtained:
Type in all cases: in vivo
mango fruits [1] = assay: Sensory analysis by a panel of 20 tasters, mango fruits and juice; settings: for quality of juice extracted from mango fruits: preharvest application, 2020
Procedure: (§1) Mango—unripe Mango fruits were harvested and dipped in 4-8 mM phenylalanine for a period of 30 seconds. Fruits were stored at 22° C. until ripening (Days 11-15), wherein sensory analysis by a panel of 20 tasters was performed. Further, Brix, and % acidity (calibrated according to citric acid), and firmness (by Newton units) values were determined in 5 different fruits.

mango fruits [2] = assay: Brix values of mango fruits and juice
Procedure: as §1

mango fruits [3] = assay: Red coloration of mango fruits after preharvest treatment; settings: Shelly and Kent; 8 mM, 1 or 2 weeks preharvest
Procedure: (§2) Mango or apple trees were treated 1 week or 2 weeks pre-harvest with either 8 mM of phenylalanine or with 0.2% prohydrojasmon ('blush'). Fruits were harvested from the external area of the tree, wherein fruits are exposed to the sunlight (photon flux of 1,500±200 μmol·m^-2 sec^-1). After harvest: (a) mango fruits were stored for 3 weeks at 12° C., and for another week at 22° C. (e.g., shelf life); and (b) apple fruits were stored for 3 months at 0° C., and for another week at 22° C. (e.g., shelf life). Surface area of the red color was evaluated as percentage, and red intensity was evaluated on a scale of 0-5. Each mango fruit was assessed for percentage of red surface area on fruit for each treatment at different time points (harvest, after cold storage at 12° C. and after shelf life at 22° C.). Similarly, red intensity was evaluated for each mango fruit using a visual rating scale, where 0=no red color, 1=faint red color, and 5=very intense red color. Fifty fruit were evaluated per treatment. The skin color (hue) of 15 mango fruit was measured for each treatment using a CR-400/410 Chromometer (Konicka Minolta, Osaka, Japan) on the equatorial line of each fruit at the […] point. […] Chlorophyll, anthocyanin, and flavonoid content were measured by the Multiplex III fluorescence detector (Force A, Orsay, France), which consists of 12 fluorescence signals. […]

[4] = system: Muscat grapes and Petit Verdot grapes; assay: Sensory analysis and Brix of grapes and juice after preharvest treatment; settings: for Brix values of grapes and/or juice: 8 mM preharvest, vs control
Procedure: Grapes—Muscat grapes and Petit Verdot grapes were treated with 8 mM phenylalanine for: (i) 1 week or 2 weeks; and (ii) 1 week, 2 weeks, or 3 weeks, before harvest, and their combination, respectively. Sensory analysis by a panel of 20 tasters was performed, for the juice extracted from the fruits, and Brix, and % acidity (calibrated according to citric acid) values were also determined. In the case of muscat grapes, intact fruits were also analyzed (e.g., by the panel, Brix, and % acidity).

apple fruits (Jonathan) [5] = assay: Sensory analysis and Brix of apple fruits and juice after preharvest treatment
Procedure: Apple—Apple trees were treated with: 8 mM phenylalanine 1 week or 2 weeks before harvest; or with 0.2 prohydrojasmon (also known as ‘blush’). Fruits were harvested from the external area of the tree. After harvest, fruits were stored for 3 months at 0° C., wherein sensory analysis by a panel of 20 tasters was performed, for both slices fruit and for juice extracted therefrom. Brix values were also determined.

apple fruits (Jonathan) [6] = assay: Red coloration of apple fruits after preharvest treatment; settings: 8 mM, 1 or 2 weeks preharvest
Procedure: as §2

Mango (Tali) fruits = assay: Aroma-associated VOC levels in dipped mango fruits; settings: pulp; dipped in 8 mM; 11 days at 22° C.; vs non-treated
Procedure: FIGS. 30A-30G include vertical bar graphs showing that a […] treatment of mango fruits with 8 mM phenylalanine increases the levels of aroma-associated VOCs. Mango (Tali) fruits were dipped in 8 mM phenylalanine and after 11 days of storage at 22° C. the profile of volatiles in the fruit […] was examined. Concentration of the following volatile aroma substances was examined (presented as μg/gFW): (30A) α-Pinene; (30B) 3-Carene; (30C) D-Limonene; (30D) Gurjunene; (30E) α-Terpinolene; (30F) α-Phellandrene; and (30G) Caryophyllene. Further, the inventors have shown that postharvest treatment as disclosed herein improves fruit aroma. The investors have dipped Mango fruits, and 11 days after storage at 22° C., the levels of aroma-associated VOCs were determined. Indeed, postharvest treatment with an effective amount of phenylalanine induced a significant increase in the levels of all tested VOCs (FIG. 30).

[7] = system: Mango fruits (Tali and Shelly); assay: ROS accumulation in injured mango fruits; settings: postharvest 8 mM; injured fruit; vs non-treated injured fruit
Procedure: FIGS. 31A-31C include a fluorescent micrograph (31A) and vertical bar graphs showing that postharvest treatment of Mango fruits (Tali and Shelly) with 8 mM phenylalanine reduces accumulation of reactive oxygen species (ROS) in the peel (31B) and pulp (31C) of treated injured fruits compared to control injured fruit (non-treated). […] (31A) Visualization conducted 20 minutes post induced injury. (31B-31C) ROS quantification 7 days post induced injury.
Further, the inventors have shown that postharvest treatment as disclosed herein reduces ROS (reactive oxygen species) accumulation in fruit injured postharvest (FIG. 31).

[8] = system: Red (Memphis) and white (Sifra) potato tubers; assay: Scratch curing in potato tuber; settings: for scratch curing (scale of 0-3): 8 mM dip 1 min
Procedure: Red (Memphis) and white (Sifra) potato tubers were dipped in water or 8 mM Phe for 1 min, and dried. The tubers were stored at 20° C. for 2 days. Each tuber was scratched (2 cm length, and 1 cm wide) in 3 spots. One week and 2 weeks later the curing of the scratch was evaluated on a scale of 0-3, the recovery of the red color was evaluated on a scale of 0-3, and the weight loss was measured.

[9] = system: Red (Memphis) and white (Sifra) potato tubers; assay: Cut curing in potato tuber; settings: 8 mM dip; for weight loss after cutting: statistically significant 14 days post-treatment
Procedure: Red (Memphis) and white (Sifra) potato tubers were dipped in water or 8 mM Phe for 1 min, and dried. The tubers were stored at 20° C. for 2 days. Each tuber was cut (2 cm length, 2 cm deep, 2 mm wide) in 3 spots. One week and 2 weeks later the curing of the cut was evaluated on a scale of 0-3, and the weight loss was measured.
Red (Memphis) and white (Sifra) potato tubers were dipped in water or 8 mM Phe for 1 min, and dried. The tubers were stored at 20° C. for 2 days. Each tuber was cut (2 cm length, 2 cm deep, 2 mm wide). Two weeks later the superficial and internal curing were documented.

[10] = system: White (Sifra) potato tubers; assay: Lignin production at the cut (Calcofluor white fluorescence); settings: 8 mM dip, one-week post-treatment, vs control
Procedure: White (Sifra) potato tubers were dipped in water or 8 mM Phe for 1 min, and dried. The tubers were stored at 20° C. for 2 days. Each tuber was cut (2 cm length, 2 cm deep, 2 mm wide). One week later the curing of the cut was documented.

Mango (Shelly) fruits = assay: Preharvest spray, red coloration and TSS in mango
Source text: FIGS. 26A-26C include vertical bar graphs showing the effect of preharvest spray treatment on red coloration and TSS in Mango (Shelly) fruits. Red color surface (%; 26A), red color intensity (26B) and TSS (% Brix; 26C) were examined under preharvest treatments with 0.01%, 0.06%, […], or 0.24% phenylalanine (Phe).
(§3) Further, improvement of fruit coloration was also shown in grapes (FIG. 28).

[11] = system: Apple (Starking Delicious) fruits; assay: Preharvest spray, red coloration and TSS in apple
Procedure: FIGS. 27A-27D include vertical bar graphs showing the effect of preharvest spray treatment on red coloration and TSS in Apple (Starking Delicious) fruits. […] In 27D, TSS was evaluated at time 0 (TO), after cold storage (CS), and after time at shelf conditions (e.g., shelf-life (SL)).
as §3

grapes (Skarlota) = assay: Preharvest spray, red coloration in grapes
Source text: FIG. 28 includes a vertical bar graph showing the effect of preharvest spray treatment on red coloration (represented as index 0-5) in grapes (Skarlota). […] Further, improvement of fruit coloration was also shown in grapes (FIG. 28).

Starking and Anna apples = assay: Enzymatic browning of sliced apple fruits after preharvest treatment; settings: 0.12%
Source text: FIGS. 29A-29E include micrographs showing the effect of preharvest treatment on decay parameters in Starking (29A-29B) and Anna (29C-29E) apples. In control fruits, enzymatic browning (i.e., oxidation) was highly evident (29A, and 29C).
Further, the inventors have examined the effect of preharvest treatment with phenylalanine on enzymatic browning, i.e., oxidation, in a fruit.

[12] = white Muscat grapes, preharvest application, 2020
[13] = preharvest, 0.06% by weight (~3 mM) or more
[14] = 0.12% (~6 mM) preharvest spray, compared to 0.01%

Compound: N[C@@H](Cc1ccccc1)C(=O)O [phenylalanine]
- quality of juice extracted from mango fruits (mango fruits [1]; Kent): quality improvement
- quality of juice extracted from mango fruits (mango fruits [1]; Shelly): quality improvement
- sensory quality of mango fruits (sweeter, less acidic, better aroma, firmness, general appreciation) (mango fruits [1]; tasters' panel, postharvest dip 4-8 mM (FIGS. 1-3) or preharvest application (FIGS. 7, 12), vs control): better quality
- Brix values in juice extracted from mango fruits (mango fruits [2]; juice of treated mango fruits vs control (FIGS. 8, 13)): greater than the control
- Brix values in mango fruits (mango fruits [2]; treated mango fruits vs control (FIGS. 1-3, 7, 12)): greater than the control
- formation of red coloration in mango fruits (mango fruits [3]): effectively induce the formation of red coloration
- Brix values of grapes and/or juice ([4]; Muscat grapes): increased Brix values
- Brix values of grapes and/or juice ([4]; Petit Verdot grapes): increased Brix values
- quality of juice extracted from grapes ([4]; Petit Verdot grapes, preharvest application, 2020): quality improvement
- flavor of grapes [4, 12]: flavor improvement
- quality of juice extracted from grapes [4, 12]: quality improvement
- Brix values in apple fruits (apple fruits (Jonathan) [5]; 8 mM preharvest, vs control): greater than the control
- sensory quality of apple fruits and/or juice (sweeter, less acidic, better aroma) (apple fruits (Jonathan) [5]; tasters' panel, 8 mM 1 or 2 weeks preharvest, after 3 months at 0° C.): better quality
- texture of apple fruits (apple fruits (Jonathan) [5]; tasters' panel, 8 mM preharvest): better texture
- formation of red coloration in apple fruits (apple fruits (Jonathan) [6]): effectively induce the formation of red coloration
- level of 3-Carene (Mango (Tali) fruits): significantly elevated
- level of Caryophyllene (Mango (Tali) fruits): significantly elevated
- level of D-Limonene (Mango (Tali) fruits): significantly elevated
- level of Gurjunene (Mango (Tali) fruits): significantly elevated
- level of α-Phellandrene (Mango (Tali) fruits): significantly elevated
- level of α-Pinene (Mango (Tali) fruits): significantly elevated
- level of α-Terpinolene (Mango (Tali) fruits): significantly elevated
- ROS accumulation in the peel [7]: substantially less ROS
- ROS accumulation in the pulp [7]: substantially less ROS
- weight loss after scratching ([8]; Memphis (red), 8 mM dip): reduced
- scratch curing (scale of 0-3) ([8]; Memphis (red), 7 and 14 days post-treatment): significantly improved
- color curing, recovery of the red color (scale of 0-3) ([8]; Memphis (red), 8 mM dip, 7 and 14 days post-treatment): significantly improved
- scratch curing (scale of 0-3) ([8]; Sifra (white), 7 and 14 days post-treatment): significantly improved
- weight loss after scratching ([8]; Sifra (white), 8 mM dip, statistically significant): reduced
- cut curing (scale of 0-3) ([9]; Memphis, 14 days): to a less extent
- weight loss after cutting ([9]; Memphis): reduced
- internal curing of the cut ([9]; Memphis, two weeks later): improved compared to control
- cut curing (scale of 0-3) ([9]; Sifra, 7 and 14 days post-treatment, vs control): improved significantly
- weight loss after cutting ([9]; Sifra): reduced
- superficial and internal curing of the cut ([9]; Sifra, two weeks later): improved compared to control
- lignin production (fluorescent intensity) [10]: increased lignin production
- red coloration (red color surface %, red color intensity) (Mango (Shelly) fruits; 0.01% (~0.5 mM) preharvest spray): ineffective
- TSS (% Brix) (Mango (Shelly) fruits; 0.01% preharvest spray): no contribution
- TSS (Mango (Shelly) fruits; [13]): substantially improved
- fruit coloration (Mango (Shelly) fruits; [13]): substantially improved
- TSS (% Brix) ([11]; 0.01% preharvest spray): comparable to negative control
- red coloration (red color surface %, red color intensity) ([11]; 0.01% preharvest spray): comparable to negative control
- TSS (% Brix) [11, 14]: substantially more effective
- red coloration (red color surface %, red color intensity) [11, 14]: substantially more effective
- red coloration (grapes (Skarlota); 0.01% (~0.5 mM) preharvest): ineffective
- red color index (0-5) (grapes (Skarlota); [14]): substantially more effective
- enzymatic browning (oxidation) (Starking and Anna apples; Anna apples, 2 weeks or 4 weeks preharvest): effective in reducing enzymatic browning
- enzymatic browning (oxidation) (Starking and Anna apples; Starking apples, 2 weeks preharvest): effective in reducing enzymatic browning

— patent publication US20240057599A1, “METHODS FOR IMPROVING FRUIT QUALITY” (The State of Israel, Ministry of Agriculture & Rural …, priority 2021, published 2024)
